Data as given in the supplement of paper PMC10307832.

Columns and labels:
Assay in all cases: relative viability (nuclei count vs DMSO), 5 days (fraction); higher = more cells survive
KN-93 + Decitabine = compound: CN(C/C=C/C1=CC=C(C=C1)Cl)CC2=CC=CC=C2N(CCO)S(=O)(=O)C3=CC=C(C=C3)OC [KN-93] + Nc1ncn([C@H]2C[C@H](O)[C@@H](CO)O2)c(=O)n1 [Decitabine] (partner 2 µM)
Method in brief: (§1)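 Nuclei were stained with Hoechst during a one-step fixation (final 0.05% Triton X-100, 1% formaldehyde, 1 ug/ml Hoechst) carried out 5 days after dosing, then counted on 4× images. The cells, lung cancer lines in 1536-well plates, had been dosed by pin tool the day after seeding with one drug alone or a fixed anchor-drug dose plus five library-drug doses (not always all listed) in √10 steps. Relative viability is the nuclei count in treated wells divided by that in vehicle wells, and each value is the median of duplicate plates.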

KN-93 + Trametinib = compound: CN(C/C=C/C1=CC=C(C=C1)Cl)CC2=CC=CC=C2N(CCO)S(=O)(=O)C3=CC=C(C=C3)OC [KN-93] + CC(=O)Nc1cccc(-n2c(=O)n(C3CC3)c(=O)c3c(Nc4ccc(I)cc4F)n(C)c(=O)c(C)c32)c1 [Trametinib] (partner 0.02 µM)
Method in brief: as §1

KN-93 + Luminespib = compound: CN(C/C=C/C1=CC=C(C=C1)Cl)CC2=CC=CC=C2N(CCO)S(=O)(=O)C3=CC=C(C=C3)OC [KN-93] + CCNC(=O)c1noc(-c2cc(C(C)C)c(O)cc2O)c1-c1ccc(CN2CCOCC2)cc1 [Luminespib] (partner 0.01 µM)
Method in brief: as §1

KN-93 + AZD7762 = compound: CN(C/C=C/C1=CC=C(C=C1)Cl)CC2=CC=CC=C2N(CCO)S(=O)(=O)C3=CC=C(C=C3)OC [KN-93] + NC(=O)Nc1cc(-c2cccc(F)c2)sc1C(=O)N[C@H]1CCCNC1 [AZD7762] (partner 0.2 µM)
Method in brief: as §1

KN-93 + Navitoclax = compound: CN(C/C=C/C1=CC=C(C=C1)Cl)CC2=CC=CC=C2N(CCO)S(=O)(=O)C3=CC=C(C=C3)OC [KN-93] + CC1(C)CCC(c2ccc(Cl)cc2)=C(CN2CCN(c3ccc(C(=O)NS(=O)(=O)c4ccc(N[C@H](CCN5CCOCC5)CSc5ccccc5)c(S(=O)(=O)C(F)(F)F)c4)cc3)CC2)C1 [Navitoclax] (partner 0.5 µM)
Method in brief: as §1

| Cell Line | relative viability (KN-93 + Decitabine; first compound 0.08 µM) | relative viability (KN-93 + Decitabine; first compound 0.253 µM) | relative viability (KN-93 + Decitabine; first compound 2.53 µM) | relative viability (KN-93 + Decitabine; first compound 8 µM) | relative viability (KN-93 + Trametinib; first compound 0.08 µM) | relative viability (KN-93 + Trametinib; first compound 0.253 µM) | relative viability (KN-93 + Trametinib; first compound 2.53 µM) | relative viability (KN-93 + Trametinib; first compound 8 µM) | relative viability (KN-93 + Luminespib; first compound 0.08 µM) | relative viability (KN-93 + Luminespib; first compound 0.253 µM) | relative viability (KN-93 + Luminespib; first compound 2.53 µM) | relative viability (KN-93 + Luminespib; first compound 8 µM) | relative viability (KN-93 + AZD7762; first compound 0.08 µM) | relative viability (KN-93 + AZD7762; first compound 0.253 µM) | relative viability (KN-93 + AZD7762; first compound 2.53 µM) | relative viability (KN-93 + AZD7762; first compound 8 µM) | relative viability (KN-93 + Navitoclax; first compound 0.08 µM) | relative viability (KN-93 + Navitoclax; first compound 0.253 µM) | relative viability (KN-93 + Navitoclax; first compound 2.53 µM) | relative viability (KN-93 + Navitoclax; first compound 8 µM) |
| --- | --- | --- | --- | --- | --- | --- | --- | --- | --- | --- | --- | --- | --- | --- | --- | --- | --- | --- | --- | --- |
| 201T | 0.866 | 0.887 | 0.758 | 0.583 | 0.714 | 0.754 | 0.711 | 0.599 | 1.04 | 1.16 | 0.958 | 0.697 | 0.616 | 0.707 | 0.658 | 0.619 | 1.23 | 1.21 | 1.19 | 1.07 |
| A549 |  | 0.285 | 0.313 | 0.294 |  |  |  |  |  |  |  |  |  |  |  |  | 1.06 | 1.33 | 1.44 | 0.513 |
| A-427 | 0.579 | 0.511 | 0.546 | 0.496 | 0.799 | 0.746 | 0.772 | 0.438 | 1.16 | 1.2 | 0.866 | 0.307 | 0.657 | 0.771 | 1.03 | 0.548 | 0.93 | 0.843 | 0.991 | 0.664 |
| ABC-1 | 1.37 | 1 | 1.17 | 0.411 |  |  |  |  | 0.701 | 0.752 | 0.368 | 0.271 | 0.924 | 1.05 | 0.869 | 0.38 |  |  |  |  |
| BEN | 0.74 | 0.758 | 0.926 | 0.537 | 1.08 | 1.19 | 1.18 | 0.67 | 0.322 | 0.331 | 0.619 | 0.214 | 0.771 | 0.661 | 0.678 | 0.442 |  | 0.062 | 0.0593 | 0.0709 |
| CAL-12T |  |  |  |  | 0.345 | 0.35 | 0.289 | 0.28 | 0.208 | 0.27 | 0.573 | 0.336 | 0.56 | 0.628 | 0.667 | 0.399 | 1.2 | 1.19 | 1.53 | 1.23 |
| COR-L23 | 0.459 | 0.409 | 0.495 | 0.35 | 0.554 | 0.625 | 0.722 | 0.395 | 0.604 | 1 | 0.978 | 0.424 |  |  |  |  | 0.877 | 1.02 | 1.37 | 0.626 |
| COR-L 105 | 0.635 | 0.657 | 0.667 | 0.634 | 0.452 | 0.41 | 0.437 | 0.399 | 0.765 | 0.869 | 0.675 | 0.739 |  |  |  |  | 0.733 | 0.639 | 0.731 | 0.514 |
| ChaGo-K-1 | 0.559 | 0.528 | 0.541 | 0.457 | 0.906 | 1.03 | 0.79 | 0.785 | 0.589 | 0.712 | 0.699 | 0.462 | 0.797 | 0.928 | 0.934 | 0.713 | 1.58 | 1.08 | 1 | 0.54 |
| EKVX | 0.332 | 0.289 | 0.342 | 0.319 | 0.359 | 0.285 | 0.341 | 0.279 | 0.998 | 0.977 | 0.895 | 0.714 | 0.623 | 0.515 | 0.73 | 0.354 | 0.824 | 0.742 | 1.13 | 0.305 |
| EMC-BAC-2 | 0.996 | 0.98 | 0.969 | 0.693 | 0.912 | 0.826 | 0.945 | 0.714 | 1.07 | 1.27 | 1.18 | 0.901 | 1.22 | 1.28 | 1.2 | 0.872 | 0.845 | 1.32 | 1.37 | 1.05 |
| EPLC-272H | 0.372 | 0.368 | 0.383 | 0.309 | 0.289 | 0.279 | 0.283 | 0.23 | 0.438 | 0.183 | 0.266 | 0.173 | 0.195 | 0.2 | 0.527 | 0.347 | 0.945 | 1.27 | 1.18 | 0.849 |
| H3255 | 0.603 | 0.728 | 0.54 | 0.474 | 0.643 | 0.59 | 0.671 | 0.417 | 0.85 | 0.97 | 0.774 | 0.776 | 0.878 | 0.894 | 0.989 | 0.558 | 0.56 | 0.511 | 0.55 | 0.124 |
| HARA | 0.572 | 0.554 | 0.641 | 0.506 | 0.632 | 0.549 | 0.434 | 0.461 | 0.659 | 1.15 | 0.449 | 0.284 | 0.303 | 0.392 | 0.193 | 0.271 | 0.983 | 1.22 | 1.02 | 0.687 |
| HCC-15 | 0.546 | 0.62 | 0.707 | 0.309 | 0.359 | 0.367 | 0.348 | 0.306 | 0.297 | 0.319 | 0.504 | 0.279 | 1.18 | 1.24 | 1.38 | 1 | 0.539 | 0.718 | 0.794 | 0.579 |
| HCC-44 | 1.05 | 0.929 | 1.03 | 0.915 | 1.14 | 0.954 | 1.04 | 0.83 | 1.28 | 1.01 | 1.12 | 0.752 | 1.02 | 0.904 | 1.04 | 0.944 | 0.852 | 0.892 | 0.951 | 0.752 |
| HCC-78 | 0.724 | 0.676 | 0.709 | 0.747 | 0.708 | 0.68 | 0.808 | 0.711 |  |  |  |  | 0.623 | 0.506 | 0.622 | 0.653 | 0.699 | 0.833 | 0.778 | 0.375 |
